Legend:
[1] = target: T1, Sodium- and chloride-dependent GABA transporter 2 (Mus musculus, UniProt P31649); test: Inhibition of mouse GAT2-mediated [3H]GABA uptake stably transfected in HEK293 cells
T1 sequence (P31649 whole entry): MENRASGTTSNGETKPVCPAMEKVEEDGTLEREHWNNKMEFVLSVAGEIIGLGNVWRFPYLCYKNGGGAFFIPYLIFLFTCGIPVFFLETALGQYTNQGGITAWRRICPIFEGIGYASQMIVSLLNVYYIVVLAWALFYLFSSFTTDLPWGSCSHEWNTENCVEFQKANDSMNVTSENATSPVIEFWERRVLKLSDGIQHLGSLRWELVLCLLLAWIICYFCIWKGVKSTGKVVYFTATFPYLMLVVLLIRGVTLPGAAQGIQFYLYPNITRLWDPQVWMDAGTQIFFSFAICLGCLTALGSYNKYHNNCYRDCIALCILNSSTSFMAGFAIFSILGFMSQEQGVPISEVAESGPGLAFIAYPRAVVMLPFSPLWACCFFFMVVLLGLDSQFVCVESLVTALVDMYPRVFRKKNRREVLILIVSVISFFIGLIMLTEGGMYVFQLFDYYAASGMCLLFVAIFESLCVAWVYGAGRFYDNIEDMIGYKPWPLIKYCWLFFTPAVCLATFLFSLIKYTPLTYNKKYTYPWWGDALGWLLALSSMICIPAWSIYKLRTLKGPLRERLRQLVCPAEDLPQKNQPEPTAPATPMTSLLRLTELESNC

[2] = target: T2, Sodium- and chloride-dependent GABA transporter 3 (Mus musculus, UniProt P31650); test: Inhibition of mouse GAT3-mediated [3H]GABA uptake stably transfected in HEK293 cells
T2 sequence (P31650 whole entry): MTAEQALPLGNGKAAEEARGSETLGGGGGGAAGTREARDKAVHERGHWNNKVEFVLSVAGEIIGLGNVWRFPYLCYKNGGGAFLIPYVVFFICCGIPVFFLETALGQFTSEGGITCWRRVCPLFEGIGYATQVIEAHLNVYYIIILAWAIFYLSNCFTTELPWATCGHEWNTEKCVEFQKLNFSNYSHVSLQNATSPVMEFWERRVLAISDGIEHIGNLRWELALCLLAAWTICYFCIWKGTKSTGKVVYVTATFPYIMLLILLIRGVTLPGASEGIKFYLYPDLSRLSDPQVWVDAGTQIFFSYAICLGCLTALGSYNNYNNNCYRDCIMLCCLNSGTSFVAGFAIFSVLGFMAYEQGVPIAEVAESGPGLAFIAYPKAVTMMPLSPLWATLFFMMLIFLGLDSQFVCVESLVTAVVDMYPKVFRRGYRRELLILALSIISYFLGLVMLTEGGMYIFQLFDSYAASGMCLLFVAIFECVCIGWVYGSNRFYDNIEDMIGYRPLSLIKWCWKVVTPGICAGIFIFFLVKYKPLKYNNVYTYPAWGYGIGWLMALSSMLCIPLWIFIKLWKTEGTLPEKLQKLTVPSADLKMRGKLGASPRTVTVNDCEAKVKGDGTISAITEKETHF

Row | Structure (SMILES) | IC50 [1] [µM] | IC50 [2] [µM]
1 | O=C(NCc1ccccc1Cl)C(CCO)N1CCC(=C(c2ccccc2)c2ccccc2)CC1 (centres undefined) | 75.9 | 56.2
2 | CN(CCCC(c1ccccc1)c1ccccc1)C(CCO)C(=O)NCc1ccc(F)cc1 (centres undefined) | 41.7 | 38.9
3 | O=C(NCc1ccc(F)cc1)C(CCO)NCCCC(c1ccccc1)c1ccccc1 (centres undefined) | 26.9 | 22.9
4 | C[C@@H](O)C[C@H](C(=O)NCc1ccccc1)N1CCC(=C(c2ccccc2)c2ccccc2)CC1 | 49 | 21.9
5 | O=C(NCc1ccc(Cl)cc1)C(CCO)NCCCC(c1ccccc1)c1ccccc1 (centres undefined) | 11 | 14.8
6 | CN(CCC=C(c1ccccc1)c1ccccc1)C(CCO)C(=O)NCc1ccc(Cl)cc1 (centres undefined) | 13.2 | 9.55
7 | Cc1ccc(CNC(=O)[C@@H](C[C@H](C)O)N2CCC(=C(c3ccccc3)c3ccccc3)CC2)cc1 | 50.1 | 
8 | O=C(NCc1ccc(Cl)cc1)C(CCO)N1CCC(=C(c2ccccc2)c2ccccc2)CC1 (centres undefined) | 19.5 | 
9 | O=C(NCc1ccccc1Cl)C(CCO)NCCCC(c1ccccc1)c1ccccc1 (centres undefined) |  | 18.2
10 | Cc1ccc(CNC(=O)C(CCO)NCCCC(c2ccccc2)c2ccccc2)cc1 (centres undefined) | 17 | 
11 | Cc1ccc(CNC(=O)C(CCO)N(C)CCCC(c2ccccc2)c2ccccc2)cc1 (centres undefined) | 28.8 | 
12 | CN(CCCC(c1ccccc1)c1ccccc1)C(CCO)C(=O)NCc1ccccc1Cl (centres undefined) | 28.8 | 16.2
13 | Cc1ccc(CNC(=O)C(CCO)N(C)CCC=C(c2ccccc2)c2ccccc2)cc1 (centres undefined) | 14.5 | 11.7
14 | CN(CCC=C(c1ccccc1)c1ccccc1)C(CCO)C(=O)NCc1ccccc1Cl (centres undefined) | 12.6 | 
15 | CN(CCC=C(c1ccccc1)c1ccccc1)C(CCO)C(=O)NCc1ccccc1 (centres undefined) | 26.9 | 13.5
16 | C[C@H](O)C[C@H](C(=O)NCc1ccccc1)N1CCC(=C(c2ccccc2)c2ccccc2)CC1 | 61.7 | 30.9
17 | O=C(NCc1ccccc1Cl)C(CCO)N1CCC(C(c2ccccc2)c2ccccc2)CC1 (centres undefined) | 49 | 36.3

Row | Structure (SMILES) | IC50 [1] [µM] | IC50 [2] [µM]
18 | O=C(NCc1ccccc1)C(CCO)N1CCC(C(c2ccccc2)c2ccccc2)CC1 (centres undefined) |  | 41.7
19 | O=C(NCc1ccccc1)C(CCO)NCCCC(c1ccccc1)c1ccccc1 (centres undefined) | 28.8 | 35.5
20 | Cc1ccc(CNC(=O)[C@@H](C[C@@H](C)O)N2CCC(=C(c3ccccc3)c3ccccc3)CC2)cc1 | 24 | 57.5
21 | C[C@H](O)C[C@H](C(=O)NCc1ccc(Cl)cc1)N1CCC(=C(c2ccccc2)c2ccccc2)CC1 |  | 42.7
22 | Cc1ccc(CNC(=O)C(CCO)N2CCC(C(c3ccccc3)c3ccccc3)CC2)cc1 (centres undefined) | 38 | 42.7
23 | Cc1ccc(CNC(=O)C(CCO)N2CCC(=C(c3ccccc3)c3ccccc3)CC2)cc1 (centres undefined) | 30.9 | 
24 | O=C(NCc1ccccc1)C(CCO)N1CCC(=C(c2ccccc2)c2ccccc2)CC1 (centres undefined) | 46.8 | 37.2
25 | CN(CCCC(c1ccccc1)c1ccccc1)C(CCO)C(=O)NCc1ccccc1 (centres undefined) | 39.8 | 32.4
26 | C[C@H](O)C[C@H](C(=O)NCc1ccc(F)cc1)N1CCC(=C(c2ccccc2)c2ccccc2)CC1 | 100 | 55
27 | C[C@@H](O)C[C@H](C(=O)NCc1ccc(F)cc1)N1CCC(=C(c2ccccc2)c2ccccc2)CC1 | 64.6 | 26.9
28 | O=C(NCc1ccc(F)cc1)C(CCO)N1CCC(=C(c2ccccc2)c2ccccc2)CC1 (centres undefined) | 16.6 | 28.2
29 | CN(CCC=C(c1ccccc1)c1ccccc1)C(CCO)C(=O)NCc1ccc(F)cc1 (centres undefined) |  | 11.2
30 | O=C(NCc1ccc(Cl)cc1)C(CCO)N1CCC(C(c2ccccc2)c2ccccc2)CC1 (centres undefined) | 60.3 | 32.4
31 | CN(CCCC(c1ccccc1)c1ccccc1)C(CCO)C(=O)NCc1ccc(Cl)cc1 (centres undefined) |  | 13.2
32 | C[C@H](O)C[C@H](C(=O)NCc1ccccc1Cl)N1CCC(=C(c2ccccc2)c2ccccc2)CC1 |  | 28.8
33 | O=C(NCc1ccc(F)cc1)C(CCO)N1CCC(C(c2ccccc2)c2ccccc2)CC1 (centres undefined) | 55 | 34.7

— BindingDB's records for doi:10.1016/j.bmc.2013.06.038 (Jagiellonian University Medical College, 2013)
